Reference: ChEMBL document CHEMBL1909046, “DrugMatrix in vitro pharmacology data”

Legend:
[1] = DRUGMATRIX: Serotonin (5-Hydroxytryptamine) 5-HT3 radioligand binding (ligand: [3H] GR-65630); format: cell membranes, Membrane; conditions: hek293; Not Active = under 50% inhibition at 10 µM
Substance-K receptor = biological target: T1, Substance-K receptor (Homo sapiens, UniProt P21452); format: cell membranes, CHO, Membrane; note: in other assays of this panel Not Active means under 50% inhibition at 10 µM
T1 sequence (P21452 whole entry): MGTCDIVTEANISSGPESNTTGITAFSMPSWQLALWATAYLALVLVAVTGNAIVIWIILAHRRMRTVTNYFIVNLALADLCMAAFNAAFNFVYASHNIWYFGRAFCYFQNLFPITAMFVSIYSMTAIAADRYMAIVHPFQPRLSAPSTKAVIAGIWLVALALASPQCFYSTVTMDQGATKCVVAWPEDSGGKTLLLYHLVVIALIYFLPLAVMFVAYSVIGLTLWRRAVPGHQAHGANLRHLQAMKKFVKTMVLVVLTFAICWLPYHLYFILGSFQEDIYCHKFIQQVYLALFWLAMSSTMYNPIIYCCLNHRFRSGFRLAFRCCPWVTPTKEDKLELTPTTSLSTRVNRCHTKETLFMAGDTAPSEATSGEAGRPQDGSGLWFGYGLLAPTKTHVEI

Adenosine receptor A3 = biological target: T2, Adenosine receptor A3 (Homo sapiens, UniProt P0DMS8); format: cell membranes, CHO-K1, Membrane; conditions: cho-k1;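 note: radioligand binding assay with AB-MECA serving as the labeled ligand; in other assays of this panel Not Active means under 50% inhibition at 10 µM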
T2 sequence (P0DMS8 whole entry): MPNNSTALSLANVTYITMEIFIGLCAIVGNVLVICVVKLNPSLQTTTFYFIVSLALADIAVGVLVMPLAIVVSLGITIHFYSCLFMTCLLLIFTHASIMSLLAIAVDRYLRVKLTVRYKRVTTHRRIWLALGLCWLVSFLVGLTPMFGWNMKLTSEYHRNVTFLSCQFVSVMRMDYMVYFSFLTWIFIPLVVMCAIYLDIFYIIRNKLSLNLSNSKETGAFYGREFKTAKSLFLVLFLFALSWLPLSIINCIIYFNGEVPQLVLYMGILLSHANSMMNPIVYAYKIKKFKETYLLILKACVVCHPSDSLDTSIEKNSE

[2] = DRUGMATRIX: Phosphodiesterase PDE4 enzyme inhibition (substrate: [3H]cAMP + cAMP); conditions: u-937, Not Active = under 50% inhibition at 10 µM
[3] = biological target: T3, 5-hydroxytryptamine receptor 1A (Rattus norvegicus, UniProt P19327); format: cell membranes, CHO-K1, Membrane; conditions: cho-k1; note: in other assays of this panel Not Active means under 50% inhibition at 10 µM
T3 sequence (P19327 whole entry): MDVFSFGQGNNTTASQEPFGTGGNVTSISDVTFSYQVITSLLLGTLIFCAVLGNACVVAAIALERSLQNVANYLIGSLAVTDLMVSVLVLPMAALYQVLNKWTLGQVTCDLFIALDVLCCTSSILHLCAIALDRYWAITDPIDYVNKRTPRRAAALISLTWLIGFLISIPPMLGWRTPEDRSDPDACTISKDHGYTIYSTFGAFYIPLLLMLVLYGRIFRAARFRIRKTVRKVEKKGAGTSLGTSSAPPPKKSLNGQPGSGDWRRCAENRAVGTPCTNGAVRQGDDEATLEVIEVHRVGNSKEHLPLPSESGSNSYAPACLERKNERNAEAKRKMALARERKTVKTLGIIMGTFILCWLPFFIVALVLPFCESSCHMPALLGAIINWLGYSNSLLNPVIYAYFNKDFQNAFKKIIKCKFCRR

[4] = biological target: T4, C-X-C chemokine receptor type 2 (Homo sapiens, UniProt P25025); format: cell membranes, Membrane; conditions: cho-k1; note: in other assays of this panel Not Active means under 50% inhibition at 10 µM
T4 sequence (P25025 whole entry): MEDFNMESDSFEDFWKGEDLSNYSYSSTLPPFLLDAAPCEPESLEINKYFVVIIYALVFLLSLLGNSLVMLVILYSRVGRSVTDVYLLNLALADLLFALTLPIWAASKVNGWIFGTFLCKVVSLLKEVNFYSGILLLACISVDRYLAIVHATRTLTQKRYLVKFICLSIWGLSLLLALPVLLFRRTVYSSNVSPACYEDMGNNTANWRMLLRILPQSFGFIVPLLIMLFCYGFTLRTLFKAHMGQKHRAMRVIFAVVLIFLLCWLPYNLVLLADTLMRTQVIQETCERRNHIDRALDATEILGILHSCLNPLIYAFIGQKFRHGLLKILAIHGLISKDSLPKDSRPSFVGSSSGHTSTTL

[5] = DRUGMATRIX: Platelet-Derived Growth Factor (PDGF) radioligand binding (ligand: [125I] PDGF); format: cell-based; conditions: nih3t3; Not Active = under 50% inhibition at 10 µM
[6] = biological target: T5, Vasoactive intestinal polypeptide receptor 1 (Homo sapiens, UniProt P32241); format: cell membranes, Membrane; conditions: ht-29; note: in other assays of this panel Not Active means under 50% inhibition at 10 µM
T5 sequence (P32241 whole entry): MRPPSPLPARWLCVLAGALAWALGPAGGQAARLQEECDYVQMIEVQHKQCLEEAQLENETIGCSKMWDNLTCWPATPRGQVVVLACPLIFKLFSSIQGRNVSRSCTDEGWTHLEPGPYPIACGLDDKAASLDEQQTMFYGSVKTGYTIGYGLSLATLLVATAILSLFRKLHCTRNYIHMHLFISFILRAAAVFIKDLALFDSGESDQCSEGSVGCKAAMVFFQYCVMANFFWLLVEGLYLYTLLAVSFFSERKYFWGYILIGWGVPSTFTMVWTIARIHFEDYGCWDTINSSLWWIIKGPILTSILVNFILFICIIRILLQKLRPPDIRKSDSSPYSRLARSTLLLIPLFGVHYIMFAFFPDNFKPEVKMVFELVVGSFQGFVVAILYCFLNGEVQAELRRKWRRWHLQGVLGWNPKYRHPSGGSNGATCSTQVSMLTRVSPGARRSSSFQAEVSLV

[7] = biological target: T6, Neuropeptide Y receptor type 1 (Homo sapiens, UniProt P25929); format: cell membranes, Membrane; conditions: sk-n-mc; note: in other assays of this panel Not Active means under 50% inhibition at 10 µM
T6 sequence (P25929 whole entry): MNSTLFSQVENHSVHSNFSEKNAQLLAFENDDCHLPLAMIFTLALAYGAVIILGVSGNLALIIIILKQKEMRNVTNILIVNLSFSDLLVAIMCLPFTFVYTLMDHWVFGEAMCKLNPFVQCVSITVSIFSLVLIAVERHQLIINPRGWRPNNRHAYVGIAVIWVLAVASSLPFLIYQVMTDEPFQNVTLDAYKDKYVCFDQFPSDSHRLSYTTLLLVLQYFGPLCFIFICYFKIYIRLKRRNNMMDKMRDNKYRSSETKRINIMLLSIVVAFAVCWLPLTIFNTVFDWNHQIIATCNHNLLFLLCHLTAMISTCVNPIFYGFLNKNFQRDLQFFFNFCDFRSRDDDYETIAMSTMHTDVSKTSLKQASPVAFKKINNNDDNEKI

[8] = DRUGMATRIX: Calcium Channel Type L, Phenylalkylamine radioligand binding (ligand: [3H] (-)-Desmethoxyverapamil (D-888)); format: cell membranes, Rattus norvegicus, Wistar, Brain, Membrane; conditions: Not Active = under 50% inhibition at 10 µM

CNC(=O)Oc1ccc2c(c1)[C@]1(C)CCN(C)[C@@H]1N2C [PHYSOSTIGMINE]
Not Active: IC50 [1] | Ki [1] | IC50 (Substance-K receptor; cho) | IC50 (Adenosine receptor A3) | IC50 [2] | Ki [2] | IC50 [3] | IC50 [4] | IC50 [5] | Ki [5] | IC50 [6] | IC50 [7] | IC50 [8] | Ki [8]

C=C1[C@@H]2CCC3[C@@](CC[C@@H]4[C@H](C(=O)O)C[C@@H](O[C@@H]5O[C@H](CO)[C@@H](OS(=O)(=O)[O-])[C@H](OS(=O)(=O)[O-])[C@H]5OC(=O)CC(C)C)C[C@@]34C)(C2)[C@@H]1O.[K+].[K+] (stereo not given in full) [ATRACTYLOSIDE]
Not Active: IC50 [1] | Ki [1] | IC50 (Substance-K receptor; cho) | IC50 (Adenosine receptor A3) | IC50 [2] | Ki [2] | IC50 [3] | IC50 [4] | IC50 [5] | Ki [5] | IC50 [6] | IC50 [7] | IC50 [8] | Ki [8]

O=C1NC(=O)C(c2ccccc2)(c2ccccc2)N1 [PHENYTOIN]
Not Active: IC50 [1] | Ki [1] | IC50 (Substance-K receptor; cho) | IC50 (Adenosine receptor A3) | IC50 [2] | Ki [2] | IC50 [3] | IC50 [4] | IC50 [5] | Ki [5] | IC50 [6] | IC50 [7] | IC50 [8] | Ki [8]

O=C1OC2(c3ccc(O)cc3Oc3cc(O)ccc32)c2ccccc21 [FLUORESCEIN]
Not Active: IC50 [1] | Ki [1] | IC50 (Substance-K receptor; cho) | IC50 (Adenosine receptor A3) | IC50 [2] | Ki [2] | IC50 [3] | IC50 [4] | IC50 [5] | Ki [5] | IC50 [6] | IC50 [7] | IC50 [8] | Ki [8]

Cc1c(-c2ccccc2)oc2c(C(=O)OCCN3CCCCC3)cccc2c1=O [FLAVOXATE]
Not Active: IC50 [1] | Ki [1] | IC50 (Substance-K receptor; cho) | IC50 (Adenosine receptor A3) | IC50 [2] | Ki [2] | IC50 [3] | IC50 [4] | IC50 [5] | Ki [5] | IC50 [6] | IC50 [7] | IC50 [8] | Ki [8]

C=C1CC[C@H](O)C/C1=C/C=C1\CCC[C@]2(C)[C@@H]([C@H](C)/C=C/[C@H](C)C(C)C)CC[C@@H]12 [ERGOCALCIFEROL]
Not Active: IC50 [1] | Ki [1] | IC50 (Substance-K receptor; cho) | IC50 (Adenosine receptor A3) | IC50 [2] | Ki [2] | IC50 [3] | IC50 [4] | IC50 [5] | Ki [5] | IC50 [6] | IC50 [7] | IC50 [8] | Ki [8]

NCC1(CC(=O)O)CCCCC1 [GABAPENTIN]
Not Active: IC50 [1] | Ki [1] | IC50 (Substance-K receptor; cho) | IC50 (Adenosine receptor A3) | IC50 [2] | Ki [2] | IC50 [3] | IC50 [4] | IC50 [5] | Ki [5] | IC50 [6] | IC50 [7] | IC50 [8] | Ki [8]

O=c1cc(-c2ccccc2)oc2c1ccc1ccccc12 [ALPHA-NAPHTHOFLAVONE]
5.85 µM: IC50 (Substance-K receptor; read-out: IC50)
2920 nM: IC50 ([2]; read-out: IC50)
1950 nM: Ki (Substance-K receptor; read-out: Ki)
Not Active: IC50 [1] | Ki [1] | IC50 (Adenosine receptor A3) | IC50 [3] | IC50 [4] | IC50 [5] | Ki [5] | IC50 [6] | IC50 [7] | IC50 [8] | Ki [8]

COc1c(N2CCNC(C)C2)c(F)cc2c(=O)c(C(=O)O)cn(C3CC3)c12 (stereo not given) [GATIFLOXACIN]
Not Active: IC50 [1] | Ki [1] | IC50 (Substance-K receptor; cho) | IC50 (Adenosine receptor A3) | IC50 [2] | Ki [2] | IC50 [3] | IC50 [4] | IC50 [5] | Ki [5] | IC50 [6] | IC50 [7] | IC50 [8] | Ki [8]

CC1=Nc2ccc(Cl)cc2S(=O)(=O)N1 [DIAZOXIDE]
Not Active: IC50 [1] | Ki [1] | IC50 (Substance-K receptor; cho) | IC50 (Adenosine receptor A3) | IC50 [2] | Ki [2] | IC50 [3] | IC50 [4] | IC50 [5] | Ki [5] | IC50 [6] | IC50 [7] | IC50 [8] | Ki [8]
